Data published in PubChem BioAssay (NCI).
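Protocol summary: plate cells (96-well), add compound at 5 concentrations, incubate 48 h, interpolate endpoints linearly. At the TGI there is no net growth.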

Experiments:
Test in all cases: NCI-60 cell line screen, 48 h
HOP-92 NSCLC = tested on: HOP-92 NSCLC
HOP-62 NSCLC = tested on: HOP-62 NSCLC
MALME-3M melanoma = tested on: MALME-3M melanoma
SK-MEL-5 melanoma = tested on: SK-MEL-5 melanoma
OVCAR-5 ovarian = tested on: OVCAR-5 ovarian
SF-539 CNS = tested on: SF-539 CNS
TK-10 renal = tested on: TK-10 renal
MDA-MB-231 breast = tested on: MDA-MB-231 breast
MDA-N = tested on: MDA-N
HT29 colon = tested on: HT29 colon
CAKI-1 renal = tested on: CAKI-1 renal
ACHN renal = tested on: ACHN renal
RXF 393 renal = tested on: RXF 393 renal
EKVX NSCLC = tested on: EKVX NSCLC
K-562 leukemia = tested on: K-562 leukemia
SK-MEL-28 melanoma = tested on: SK-MEL-28 melanoma
SF-268 CNS = tested on: SF-268 CNS
SF-295 CNS = tested on: SF-295 CNS
OVCAR-4 ovarian = tested on: OVCAR-4 ovarian
BT-549 breast = tested on: BT-549 breast
NCI/ADR-RES ovarian = tested on: NCI/ADR-RES ovarian
OVCAR-8 ovarian = tested on: OVCAR-8 ovarian
HCT-15 colon = tested on: HCT-15 colon
NCI-H460 lung = tested on: NCI-H460 lung
HCC-2998 colon = tested on: HCC-2998 colon
HCT-116 colon = tested on: HCT-116 colon
SW-620 colon = tested on: SW-620 colon
MDA-MB-435 = tested on: MDA-MB-435
IGROV1 ovarian = tested on: IGROV1 ovarian
786-0 renal = tested on: 786-0 renal
SK-MEL-2 melanoma = tested on: SK-MEL-2 melanoma
OVCAR-3 ovarian = tested on: OVCAR-3 ovarian
SK-OV-3 ovarian = tested on: SK-OV-3 ovarian
NCI-H522 lung = tested on: NCI-H522 lung
MOLT-4 leukemia = tested on: MOLT-4 leukemia
NCI-H226 lung = tested on: NCI-H226 lung
T-47D breast = tested on: T-47D breast
U251 CNS = tested on: U251 CNS
COLO 205 colon = tested on: COLO 205 colon
DU-145 prostate = tested on: DU-145 prostate
M14 melanoma = tested on: M14 melanoma
SNB-75 CNS = tested on: SNB-75 CNS
NCI-H23 lung = tested on: NCI-H23 lung
A549 NSCLC = tested on: A549 NSCLC
UO-31 renal = tested on: UO-31 renal
UACC-62 melanoma = tested on: UACC-62 melanoma
MCF7 breast = tested on: MCF7 breast
PC-3 prostate = tested on: PC-3 prostate
HS 578T breast = tested on: HS 578T breast
KM12 colon = tested on: KM12 colon
RPMI-8226 leukemia = tested on: RPMI-8226 leukemia
HL-60(TB) leukemia = tested on: HL-60(TB) leukemia
SN12C renal = tested on: SN12C renal
UACC-257 melanoma = tested on: UACC-257 melanoma
SNB-19 CNS = tested on: SNB-19 CNS
LOX IMVI melanoma = tested on: LOX IMVI melanoma
SR leukemia = tested on: SR leukemia
CCRF-CEM leukemia = tested on: CCRF-CEM leukemia

Measured: TGI

COc1cc(OC)c2c(c1)OC(c1ccccc1)CC2=O (stereo not drawn)
> 10 µM: all assays above
